Tests used:
ALPK1 [1] = target: T1, ALPK1 (Homo sapiens, UniProt Q96QP1); test: IL8 secretion in HEK293 cells (IL8 ELISA) as indicator of ALPK1 activation; settings: for IL8 secretion in HEK293 cells: without FBS, serial dilutions, 4 hours; for restoration of H1b-ADP's activity in the cell based assay (IL8 secretion): added to the FBS-containing medium, HEK293 cells
Experimental: Phosphatase such as the alkaline phosphatase may be responsible for H1b-ADP hydrolysis. We pre-mixed H1b-ADP with phosphatase inhibitor sodium orthovanadate (Na3VO4) before incubation with FBS. […] We hypothesized that the accumulation of hydrolysis product AMP can inhibit phosphatase activity.
A number of H1b-ADP derivative compounds were made as described herein and tested for biological activity as agonists of ALPK1 in vitro. In these experiments, serial dilutions of the compounds were added to the tissue culture media of HEK293 cells with (FIG. 27B, FIG. 28B, FIG. 29B) or without (FIG. 26, FIG. 27A, FIG. 28A, FIG. 29A) 10% FBS, as indicated in the figures. After 4 hours, the cell supernatant was collected and analyzed for IL8 concentration using IL8 ELISA (BD) as an indicator of ALPK1 activation.

CT26 cells = test: CT26 tumor xenograft model, tumor growth (tumor volume); assay type: in vivo, BALB/c mice; settings: Example 18, FIG. 30; 50 nmol, injections at days 7, 9, 11
Experimental: We used a CT26 tumor xenograft model to test the anti-cancer activity of H1b-ADP. Tumor cells (2×10^5 per 100 uL CT26 cells) were inoculated subcutaneously into the right flank of BALB/c mice. At day 6, mice whose tumors had reached 3-5 mm in diameter were randomized and grouped into three groups (n=8 each group), control, HMP-1bP (580 ug), and H1b-ADP (1.2 ug). Injections were performed using a total volume of 20 uL at days 6, 8, 10, 12, and 14 post inoculation. Tumor volumes were calculated every 2 days from caliper measurements of tumor dimension using the formula (L×W^2)/2, where L is the longer measurement.
To test whether H1b-ADP could augment an anti-tumor response by a checkpoint inhibitor, we tested the effects of co-administration with an anti-PD1 antibody. Tumor cells (2×10^5 per 100 μL CT26 cells) were inoculated subcutaneously into the left and right flanks of BALB/c mice. At day 7, mice whose tumors had reached 5 mm in diameter were randomized and grouped (n=8 each group) into the following four groups: anti-PD1 antibody; rat IgG; H1b-ADP+rat IgG; H1b-ADP+anti-PD1 antibody. We utilized RMP1-14 as the anti-PD1 antibody (10 mg/kg) and a rat IgG 2a (2A3) as the control IgG. Each of the anti-PD-1 antibody and the control IgG was administered intraperitoneally in a 200 μL volume on days 6, 10, 12, and 17 post-inoculation. H1b-ADP (6.2 μg) was intratumorally injected in a 20 μL volume at day 6, 8, 10, 12, and 15. Tumor volumes were calculated every 2 days from caliper measurements of tumor dimensions using the formula (L×W^2)/2, where L is the longer measurement. The results are shown in FIG. 13A for injected tumors and FIG. 13B for distant tumors. […]
The experiment was carried out as combo experiments of anti-PD1 except for the following variations. At day 6, mice whose tumors had reached 5 mm in diameter were randomized and grouped into the following four groups: anti-CTLA-4 antibody; rat IgG; H1b-ADP+rat IgG; H1b-ADP+anti-CTLA-4 antibody. We utilized 9D9 (BioxCell) as the anti-CTLA-4 antibody and a rat IgG 2b isotype (MPC-11 clone, BE0086, BioXCell) as the control IgG. Each of the anti-CTLA-4 antibody (25 μg) and the control IgG (25 μg) was administered intraperitoneally in a 200 μL volume on days 6 and 9 post-inoculation. H1b-ADP (6.2 μg) was administered intratumorally in a 20 μL volume on days 6, 7, 9, 11 post-inoculation.
The experiment was carried out as combo experiments of anti-PD1 except for the following variations. At day 6, mice whose tumors had reached 5 mm in diameter were randomized and grouped into the following four groups: c-di-AM(PS)2; PBS; H1b-ADP; H1b-ADP+c-di-AM(PS)2. We utilized c-di-AM(PS)2 as the STING agonist. […]

[2] = tested on: phosphatase activity in the serum; test: Incubation of H1b-ADP with FBS, product analysed by LC-MS; assay type: in vitro ADME, bovine
Text: (§1) FBS contains 110-352 μU/ml alkaline phosphatase.

[3] = tested on: Cxcl1, Cxcl11, IL1b, and IL6 in mouse liver and lung tissue; test: Tissue expression of chemokines and cytokines after subcutaneous injection (qPCR); assay type: in vivo, C57 mice; settings: subcutaneous, 2, 10, 50, 200 nmol tested, tissue harvested three hours later
Experimental: In additional experiments, Compound 1 was injected subcutaneously into 7 week old C57 mice at concentrations of 2, 10, 50, and 200 nmol. Tissue was harvested three hours later and RNA extracted. Quantitative PCR (qPCR) was performed to determine the tissue expression levels Cxcl1, Cxcl11, IL1b, and IL6 in mouse liver (FIG. 32A) and lung (FIG. 32B) tissue. Additional chemokines and cytokines were assayed in the lung tissue.

ALPK1 [4] = target: T1, ALPK1; test: IL-8 and TNFα mRNA expression in HEK293 cells with control or ALPK1-directed siRNA (qPCR); assay type: cell-based; parameters: silence ALPK1 expression in HEK293 cells; endogenous in cells; host or cells: HEK293; settings: control vs ALPK1-directed siRNA, 4 hours, HBP 500, 100, 20 uM, HMP-1bP 500, 100 uM, H1b-ADP 100, 20, 4, 0.8 nM
Experimental: To test whether HBP, HMP-1bP, and H1b-ADP were able to induce cytokine expression in an ALPK1 dependent manner, we used an ALPK1-directed small interfering RNA (siRNA) to silence ALPK1 expression in HEK293 cells. Cells were plated (1×10^4 cells/well) into 96-well plates and transfected with either control siRNA or ALPK1-directed siRNA according to the manufacturer's protocols (Lipofectamine™ RNAiMax™, Invitrogen 13778075). Following 2 days of culture, either (1) HBP (500 uM, 100 uM, 20 uM, FIG. 2A-2B) (2) HMP-1bP (500 uM, 100 uM, FIG. 3A-3B), (3) H1b-ADP (100 nM, 20 nM, 4 nM, 0.8 nM, FIG. 4A-4B) was added to culture medium and cells were harvested 4 hours later.

ALPK1 [5] = target: T1, ALPK1; test: Thermal shift assay (SYPRO Orange) for binding to ALPK1; settings: ALPK1 7 uM; 1, 5, 25, 125 uM compound; H1b-ADP shift at 5, 25 and 125 uM
Text: The thermal shift assay is widely used to determine the binding of a molecule to a protein of interest. The assay is based on the increase in thermal energy required for denaturation of a protein where another molecule is bound to the protein. SYPRO Orange is a fluorescent compound used in the detection of thermal shift. SYPRO Orange binds to hydrophobic surfaces of the protein, and water strongly quenches its fluorescence. When the protein unfolds, the exposed hydrophobic surfaces bind the dye, resulting in an increase in fluorescence. When another molecule is bound to the protein, an increase in the temperature required for unfolding of the protein is observed.
This assay system was used to determine whether or not chemically synthesized HBP, HMP-1bP, and H1b-ADP directly bind to ALPK1. […] Only H1b-ADP induced a shift of more than 1 degree, at each of the three highest concentrations tested, 5 uM, 25 uM, and 125 uM.

ALPK1 [6] = target: T1, ALPK1; test: Cell-free kinase assay of ALPK1 autophosphorylation (Western, anti-phospho-threonine); assay type: biochemical; settings: 2 nM ALPK1 with ATP, 25° C., 1 h; H1b-ADP 10, 1, 0.2 nM; HBP and HMP-1bP 1, 10, 100 nM
Experimental: ALPK1 activation results in its autophosphorylation. Accordingly, we next asked whether the binding of H1b-ADP to ALPK1 was sufficient to induce ALPK1 autophosphorylation. Phosphorylation assays were performed according to standard protocols. Briefly, ALPK1 was incubated (2 nM, 25° C., 1 h) in assay buffer (20 μl, 25 mM HEPES pH 7.5, 50 mM KCl, 0.1 mM EDTA, 0.1 mM EGTA, 2 mM DTT, 1.5 mM CaCl2, 10 mM MgCl2) with ATP and chemically synthesized HBP, HMP-1bP, or H1b-ADP followed by denaturing gel electrophoresis and Western analysis with an anti-phospho-threonine antibody (CST) to detect autophosphorylation of ALPK1. […] The range of concentrations of HBP and HMP-1bP used in this assay (1 nM, 10 nM, 100 nM) was 10-fold higher than that used for H1b-ADP.

ALPK1 [7] = target: T1, ALPK1; test: In vitro kinase assay of ALPK1-dependent TIFA phosphorylation; assay type: biochemical; settings: FIG. 7, chemically-synthesized compounds
Experimental: We performed an in vitro kinase assay with H1b-ADP and H1b-ADP-6L along with ALPK1 protein (2 nM), and TIFA protein (1.6 uM) in kinase buffer containing 50 uM ATP. TIFA phosphorylation was analyzed by denaturing gel electrophoresis followed by western blotting using an anti-phosphothreonine antibody. H1b-ADP or H1b-ADP-6L was added at 2 nM, 0.4 nM, 80 pM, 16 pM, and 3 pM.
To test this, we performed an in vitro kinase reaction for ALPK1-dependent TIFA phosphorylation in the presence of either HBP or HIdA purified from E. coli containing inactivated HIdE, or in the presence of HBP and HIdA purified from the same HIdE wild-type E. coli used in the previous experiments. Phosphorylated TIFA (three concentrations, 1%, 0.2% and […]) was detected as described above by denaturing gel electrophoresis followed by Western analysis.

[8] = tested on: bovine alkaline phosphatase; test: Incubation of H1b-ADP with bovine alkaline phosphatase; assay type: biochemical; settings: H1b-ADP incubated with bovine alkaline phosphatase, increasing amount of Na3VO4
Text: as §1

T1 sequence (Q96QP1 whole entry): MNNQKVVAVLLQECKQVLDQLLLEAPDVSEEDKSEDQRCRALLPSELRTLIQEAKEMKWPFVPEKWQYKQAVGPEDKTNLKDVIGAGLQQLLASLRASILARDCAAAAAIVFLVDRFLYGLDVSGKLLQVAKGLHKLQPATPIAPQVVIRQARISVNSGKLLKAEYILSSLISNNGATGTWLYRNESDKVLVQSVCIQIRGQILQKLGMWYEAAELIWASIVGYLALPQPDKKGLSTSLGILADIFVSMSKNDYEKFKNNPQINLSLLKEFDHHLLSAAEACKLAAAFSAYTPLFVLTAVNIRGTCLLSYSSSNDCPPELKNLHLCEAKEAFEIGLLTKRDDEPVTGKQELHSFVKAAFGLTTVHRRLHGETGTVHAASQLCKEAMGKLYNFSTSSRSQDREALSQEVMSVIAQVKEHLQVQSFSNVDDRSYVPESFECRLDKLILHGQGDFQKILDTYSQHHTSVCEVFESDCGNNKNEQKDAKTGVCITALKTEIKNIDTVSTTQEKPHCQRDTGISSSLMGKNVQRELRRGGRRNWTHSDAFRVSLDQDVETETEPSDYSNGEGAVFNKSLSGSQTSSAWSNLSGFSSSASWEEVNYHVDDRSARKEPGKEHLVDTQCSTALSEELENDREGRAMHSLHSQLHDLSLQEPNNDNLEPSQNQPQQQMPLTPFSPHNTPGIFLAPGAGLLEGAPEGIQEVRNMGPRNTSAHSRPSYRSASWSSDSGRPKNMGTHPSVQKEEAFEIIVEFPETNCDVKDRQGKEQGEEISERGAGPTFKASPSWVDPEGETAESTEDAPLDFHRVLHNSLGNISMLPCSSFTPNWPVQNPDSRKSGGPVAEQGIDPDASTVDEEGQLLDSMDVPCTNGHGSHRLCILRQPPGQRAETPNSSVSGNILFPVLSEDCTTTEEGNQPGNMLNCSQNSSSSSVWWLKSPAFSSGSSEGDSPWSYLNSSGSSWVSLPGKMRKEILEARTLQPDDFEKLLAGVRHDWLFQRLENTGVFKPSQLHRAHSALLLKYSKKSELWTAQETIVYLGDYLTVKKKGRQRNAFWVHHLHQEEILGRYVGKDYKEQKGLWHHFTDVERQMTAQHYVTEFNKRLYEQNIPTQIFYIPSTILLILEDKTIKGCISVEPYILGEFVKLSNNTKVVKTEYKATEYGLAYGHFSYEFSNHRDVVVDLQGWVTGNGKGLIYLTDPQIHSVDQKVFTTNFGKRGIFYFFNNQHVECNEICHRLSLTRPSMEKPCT

SMILES: Nc1ncnc2c1ncn2[C@@H]1O[C@H](COP(=O)(O)OP(=O)(O)O[C@@H]2OC([C@H](O)CO)[C@@H](O)C(O)C2O)C(F)C1O (stereo in doubt) [Compound 2, Adenosine-3′-fluoro-5′-(D-glycero-β-D-mannoheptopyranosyl) diphosphate]
- IL8 secretion in HEK293 cells (ALPK1 [1]): activate IL8 secretion
- tumor growth (CT26 cells): reduced tumor growth

SMILES: Nc1ncnc2c1ncn2[C@@H]1O[C@H](COP(=O)(O)O)[C@@H](O)[C@H]1O [AMP, reference compound]
- restoration of H1b-ADP's activity in the cell based assay (IL8 secretion) (ALPK1 [1]): could restore H1b-ADP's activity in the cell based assay
- phosphatase activity in serum (H1b-ADP hydrolysis) ([2]; pre-treatment of H1b-ADP with AMP before serum incubation): inhibited phosphatase activity and the inhibition was AMP dose-dependent

SMILES: CC(=O)OC[C@@H](OC(C)=O)[C@H]1O[C@@H](OP(=O)(O)OP(=O)(O)OC[C@H]2O[C@@H](n3cnc4c(N)ncnc43)[C@H](O)[C@@H]2F)[C@@H](OC(C)=O)[C@@H](OC(C)=O)[C@@H]1OC(C)=O [Compound 1, (2S,3S,4S,5R,6R)-2-(((((((2R,3S,4S,5R)-5-(6-amino-9H-purin-9-yl)-3-fluoro-4-hydroxytetrahydrofuran-2-yl)methoxy)(hydroxy)phosphoryl)oxy)(hydroxy)phosphoryl)oxy)-6-((R)-1,2-diacetoxyethyl)tetrahydro-2H-pyran-3,4,5-triyl triacetate]
- IL8 secretion in HEK293 cells (ALPK1 [1]): activate IL8 secretion
- dose that activates an inflammatory response in liver tissue [3]: 2 nmol
- dose that activates an inflammatory response in lung tissue [3]: 200 nmol
- tumor growth (CT26 cells): reduced tumor growth

SMILES: O=P(O)(O)OC[C@@H](O)[C@H]1O[C@@H](OP(=O)(O)O)[C@@H](O)[C@@H](O)[C@@H]1O [HBP, D-glycero-β-D-manno-heptose 1,7-bisphosphate]
- IL-8 mRNA expression (ALPK1 [4]): increased in an ALPK1-dependent manner
- TNFα mRNA expression (ALPK1 [4]): increased in an ALPK1-dependent manner
- thermal shift of ALPK1 (ALPK1 [5]): Neither HBP nor HMP-1bP were able to induce a thermal shift
- autophosphorylation of ALPK1 (ALPK1 [6]): not HBP or HMP-1bP induces ATP-dependent autophosphorylation
- phosphorylation of the ALPK1 substrate TIFA (ALPK1 [7]): TIFA is phosphorylated only in the presence of H1b-ADP

SMILES: [Na+].[Na+].[Na+].[O]=[V]([O-])([O-])[O-] [Na3VO4, sodium orthovanadate]
- restoration of H1b-ADP's activity in the cell based assay (IL8 secretion) (ALPK1 [1]): could restore H1b-ADP's activity in the cell based assay
- H1b-ADP hydrolysis in FBS ([2]; H1b-ADP pre-mixed with 1 mM Na3VO4 before incubation with FBS): effectively inhibited H1b-ADP hydrolysis
- phosphatase activity on H1b-ADP [8]: the phosphatase activity was blocked by increasing amount of Na3VO4

— patent publication US11840551B2, “Compositions and methods of modulating the immune response by activating alpha protein kinase 1” (Shanghai Yao Yuan Biotechnology Co., Ltd., priority 2017, dated 2023)
